The record followed here is patent US20150126516A1, “PIPERIDINE COMPOUND AND ITS USE IN PEST CONTROL” (Sumitomo Chemical Company, Limited, priority 2012, published 2015).

One experiment concerns cotton aphids. Kind of experiment: Controlling effect on cotton aphid, spray on inoculated cucumber seedlings. Particulars: 144 h; 500 ppm active ingredient, 20 ml sprayed on cucumber seedlings with about 30 cotton aphids, 6 days after spraying. Type of experiment: in vivo, Aphis gossypii.
Experiment [1] relates to summer fruit tortrix moths (Adoxophyes orana). In words: Controlling effect on summer fruit tortrix moth, treated artificial feed. Particulars: 168 h. The experiment is classed as in vivo. As for the experimental part:
Liquid medicines for a test were prepared by diluting each formulation of the compounds 1, 3, 6, 10, 12, 16, 17, 20, 21, 23, 26 to 29, 33, 38, and 42 of the present invention, which were obtained from Formulation Example 5, with water so that the concentration of the active ingredients becomes 500 ppm.
Silk Mates 2S (artificial feed: Nosan Corporation), which were sliced in a thickness of 2 mm, were placed on the bottom of polyethylene cups and 1 mL of each of the above-described liquid medicines for a test was irrigated thereto.
After air-drying, 30 first-instar larvae of summer fruit tortrix moths (Adoxophyes orana) were released in each cup, which was then covered with a lid. The cups were stored at 25° C., the number of surviving insects was counted after 7 days, and the mortality rate was obtained using the following formula.
(§1) Mortality(%)=(the number of dead insects/the number of insects provided for a test)×100

A further experiment deals with diamondback moths. Kind of experiment: Controlling effect on diamondback moth, spray on cabbages. Type of experiment: in vivo. Particulars: Plutella xylostella, 120 h, read-out: Mortality rate. As for the experimental part: Spray solutions for a test were prepared by diluting each formulation of the compounds 1, 11 to 14, 16, 17, 36, and 38 of the present invention, which were obtained from Formulation Example 5, with water so that the concentration of the active ingredients becomes 500 ppm.
Meanwhile, each of the above-described liquid solutions for the test was sprayed on cabbages in a third-leaf stage which were planted in polyethylene cups at a ratio of 20 mL/cup. After the liquid solutions were dried, the stems and leaves were cut and accommodated in each 50 mL cup. 5 second-instar larvae of diamondback moths were released in each cup, which was then covered with a lid. The cups were stored at 25° C., the number of surviving insects was counted after 5 days, and the mortality rate was obtained using the following formula.
as §1

In a further experiment the test system is common houseflies. In words: Controlling effect on common housefly, treated filter paper with sucrose bait. The experiment is classed as in vivo. Particulars: Musca domestica, 24 h, read-out: Mortality rate. As for the experimental part:
Liquid medicines for a test were prepared by diluting a formulation of the compound 28 of the present invention, which was obtained from Formulation Example 5, with water so that the concentration of the active ingredients becomes 500 ppm.
A filter paper having a diameter of 5.5 cm was spread on the bottom of a polyethylene cup having the same size as that of the filter paper, 0.7 ml ml of any one of the above-described liquid medicines for a test was added dropwise onto the filter paper, and 30 mg of sucrose was uniformly put therein as bait. 10 female imagoes of common houseflies were released in the polyethylene cup, which was then covered with a lid. The number of live and dead common houseflies were checked after 24 hours and the mortality rate was obtained using the following formula.
Mortality(%)=(the number of dead insectse/the number of insects provided for a test)×100

In general, pest or weed control refers to how far the test organism was held down. A low value points to weak suppression. In general, mortality refers to the percentage killed. Regarding `O=C(NCC1(c2ccccc2)CCN(CCc2ccccc2C(F)(F)F)CC1)c1ccccc1Cl` [compound 12, 2-chloro-N-((4-phenyl-1-(2-(trifluoromethyl)phenethyl)piperidin-4-yl)methyl)benzamide], the pest or weed control at 500 ppm in the experiment on cotton aphids was not below 90%. For the same compound, the mortality at 500 ppm in experiment [1] is not below 90%; in the experiment with diamondback moths it was not below 80%.

On to `O=C(NCC1(c2ccccc2)CCN(CCc2ccccc2C(F)(F)F)CC1)c1ccccn1` [compound 16, N-((4-phenyl-1-(2-(trifluoromethyl)phenethyl)piperidin-4-yl)methyl)picolinamide], for which the pest or weed control at 500 ppm in the experiment on cotton aphids was not below 90%. The mortality at 500 ppm in experiment [1] was not below 90%; in the experiment on diamondback moths it was not below 80%.

Take `COc1ccccc1C(=O)NCC1(c2ccccc2)CCN(CCc2ccccc2C(F)(F)F)CC1` [compound 28, 2-methoxy-N-((4-phenyl-1-(2-(trifluoromethyl)phenethyl)piperidin-4-yl)methyl)benzamide]: the pest or weed control at 500 ppm in the experiment with cotton aphids was not below 90%. For the same compound, the mortality at 500 ppm is not below 90% in experiment [1] and not below 70% in the experiment with common houseflies.

Compound `O=C(NCC1(c2ccccn2)CCN(CCc2ccccc2C(F)(F)F)CC1)c1cc(Cl)nc(Cl)c1` [compound 38, 2,6-dichloro-N-((4-(pyridin-2-yl)-1-(2-(trifluoromethyl)phenethyl)piperidin-4-yl)methyl)isonicotinamide] yielded a pest or weed control at 500 ppm in the experiment on cotton aphids not below 90%. The results for the mortality at 500 ppm (in experiment [1]; with diamondback moths) were not below 90% and not below 80%, respectively.
